Results reported in ChEMBL document CHEMBL3045802, “Synthesis and in vitro antitumor activity of new quinoline, pyrimido[4,5-b]quinoline, [1,2,3]triazino[4,5-b]quinoline, and [1,2,4]triazolo[2,3:3,4]pyrimido[6,5-b]quinoline analogs” (2013).

Legend:
Assay type in all cases: functional
SK-MEL-28 = assay: Cytotoxicity against Homo sapiens (human) SK-MEL-28 cells assessed as growth inhibition at 10 uM after 48 hr by coulter counter analysis; conditions: SK-MEL-28, 48 h, read-out: GI
SK-MEL-2 = assay: Cytotoxicity against Homo sapiens (human) SK-MEL-2 cells assessed as growth inhibition at 10 uM after 48 hr by coulter counter analysis; conditions: SK-MEL-2, 48 h, read-out: GI
MDA-MB-435 = assay: Cytotoxicity against Homo sapiens (human) MDA-MB-435 cells assessed as growth inhibition at 10 uM after 48 hr by coulter counter analysis; conditions: MDA-MB-435, 48 h, read-out: GI
M14 = assay: Cytotoxicity against Homo sapiens (human) M14 cells assessed as growth inhibition at 10 uM after 48 hr by coulter counter analysis; conditions: M14, 48 h, read-out: GI
SNB-19 = assay: Cytotoxicity against Homo sapiens (human) SNB19 cells assessed as growth inhibition at 10 uM after 48 hr by coulter counter analysis; conditions: SNB-19, 48 h, read-out: GI
SF-539 = assay: Cytotoxicity against Homo sapiens (human) SF539 cells assessed as growth inhibition at 10 uM after 48 hr by coulter counter analysis; conditions: SF-539, 48 h, read-out: GI
SF-295 = assay: Cytotoxicity against Homo sapiens (human) SF295 cells assessed as growth inhibition at 10 uM after 48 hr by coulter counter analysis; conditions: SF-295, 48 h, read-out: GI
OVCAR-4 = assay: Cytotoxicity against Homo sapiens (human) OVCAR4 cells assessed as growth inhibition at 10 uM after 48 hr by coulter counter analysis; conditions: OVCAR-4, 48 h, read-out: GI
OVCAR-3 = assay: Cytotoxicity against Homo sapiens (human) OVCAR3 cells assessed as growth inhibition at 10 uM after 48 hr by coulter counter analysis; conditions: OVCAR-3, 48 h, read-out: GI
IGROV-1 = assay: Cytotoxicity against Homo sapiens (human) IGROV1 cells assessed as growth inhibition at 10 uM after 48 hr by coulter counter analysis; conditions: IGROV-1, 48 h, read-out: GI
UACC-257 = assay: Cytotoxicity against Homo sapiens (human) UACC257 cells assessed as growth inhibition at 10 uM after 48 hr by coulter counter analysis; conditions: UACC-257, 48 h, read-out: GI
T47D = assay: Cytotoxicity against Homo sapiens (human) T47D cells assessed as growth inhibition at 10 uM after 48 hr by coulter counter analysis; conditions: read-out: GI
MCF7 = assay: Cytotoxicity against Homo sapiens (human) MCF7 cells assessed as growth inhibition at 10 uM after 48 hr by coulter counter analysis; conditions: MCF7, 48 h, read-out: GI
PC-3 = assay: Cytotoxicity against Homo sapiens (human) PC3 cells assessed as growth inhibition at 10 uM after 48 hr by coulter counter analysis; conditions: PC-3, 48 h, read-out: GI
UO-31 = assay: Cytotoxicity against Homo sapiens (human) UO31 cells assessed as growth inhibition at 10 uM after 48 hr by coulter counter analysis; conditions: UO-31, 48 h, read-out: GI
RXF 393 = assay: Cytotoxicity against Homo sapiens (human) RXF393 cells assessed as growth inhibition at 10 uM after 48 hr by coulter counter analysis; conditions: RXF 393, 48 h, read-out: GI
CAKI-1 = assay: Cytotoxicity against Homo sapiens (human) Caki1 cells assessed as growth inhibition at 10 uM after 48 hr by coulter counter analysis; conditions: CAKI-1, 48 h, read-out: GI
786-0 = assay: Cytotoxicity against Homo sapiens (human) 786-0 cells assessed as growth inhibition at 10 uM after 48 hr by coulter counter analysis; conditions: 786-0, 48 h, read-out: GI
A498 = assay: Cytotoxicity against Homo sapiens (human) A498 cells assessed as growth inhibition at 10 uM after 48 hr by coulter counter analysis; conditions: A498, 48 h, read-out: GI
[1] = Cytotoxicity against Homo sapiens (human) NCI-ADR-RES cells assessed as growth inhibition at 10 uM after 48 hr by coulter counter analysis; conditions: read-out: GI
OVCAR-8 = assay: Cytotoxicity against Homo sapiens (human) OVCAR8 cells assessed as growth inhibition at 10 uM after 48 hr by coulter counter analysis; conditions: OVCAR-8, 48 h, read-out: GI
OVCAR-5 = assay: Cytotoxicity against Homo sapiens (human) OVCAR5 cells assessed as growth inhibition at 10 uM after 48 hr by coulter counter analysis; conditions: OVCAR-5, 48 h, read-out: GI
HL-60(TB) = assay: Cytotoxicity against Homo sapiens (human) HL-60(TB) cells assessed as growth inhibition at 10 uM after 48 hr by coulter counter analysis; conditions: HL-60, 48 h, read-out: GI
SF-268 = assay: Cytotoxicity against Homo sapiens (human) SF268 cells assessed as growth inhibition at 10 uM after 48 hr by coulter counter analysis; conditions: SF-268, 48 h, read-out: GI
HT-29 = assay: Cytotoxicity against Homo sapiens (human) HT-29 cells assessed as growth inhibition at 10 uM after 48 hr by coulter counter analysis; conditions: HT-29, 48 h, read-out: GI
HCT-15 = assay: Cytotoxicity against Homo sapiens (human) HCT15 cells assessed as growth inhibition at 10 uM after 48 hr by coulter counter analysis; conditions: HCT-15, 48 h, read-out: GI
HCC 2998 = assay: Cytotoxicity against Homo sapiens (human) HCC2998 cells assessed as growth inhibition at 10 uM after 48 hr by coulter counter analysis; conditions: HCC 2998, 48 h, read-out: GI
COLO 205 = assay: Cytotoxicity against Homo sapiens (human) COLO205 cells assessed as growth inhibition at 10 uM after 48 hr by coulter counter analysis; conditions: COLO 205, 48 h, read-out: GI
NCI-H226 = assay: Cytotoxicity against Homo sapiens (human) NCI-H226 cells assessed as growth inhibition at 10 uM after 48 hr by coulter counter analysis; conditions: NCI-H226, 48 h, read-out: GI
HOP-92 = assay: Cytotoxicity against Homo sapiens (human) HOP92 cells assessed as growth inhibition at 10 uM after 48 hr by coulter counter analysis; conditions: HOP-92, 48 h, read-out: GI
HOP-62 = assay: Cytotoxicity against Homo sapiens (human) HOP62 cells assessed as growth inhibition at 10 uM after 48 hr by coulter counter analysis; conditions: HOP-62, 48 h, read-out: GI
SR = assay: Cytotoxicity against Homo sapiens (human) SR cells assessed as growth inhibition at 10 uM after 48 hr by coulter counter analysis; conditions: read-out: GI
RPMI-8226 = assay: Cytotoxicity against Homo sapiens (human) RPMI8226 cells assessed as growth inhibition at 10 uM after 48 hr by coulter counter analysis; conditions: RPMI-8226, 48 h, read-out: GI

For `O=c1[nH]nnc2c1C(c1ccc(Cl)cc1)C1=C(CCCC1)N2` (stereo not drawn), the inhibition of growth at 10 µM (SK-MEL-28) was < 10%, the inhibition of growth at 10 µM (SK-MEL-2) was < 10% and the inhibition of growth at 10 µM (MDA-MB-435) was < 10%. For the same compound, the inhibition of growth at 10 µM (M14) was < 10%, the inhibition of growth at 10 µM (SNB-19) was < 10% and the inhibition of growth at 10 µM (SF-539) was < 10%. For the same compound, the inhibition of growth at 10 µM (SF-295) was < 10%, the inhibition of growth at 10 µM (OVCAR-4) was < 10% and the inhibition of growth at 10 µM (OVCAR-3) was < 10%. For the same compound, the inhibition of growth at 10 µM (IGROV-1) was < 10%, the inhibition of growth at 10 µM (UACC-257) was < 10% and the inhibition of growth at 10 µM (T47D) was 13.3%. The inhibition of growth at 10 µM (MCF7) was < 10%, the inhibition of growth at 10 µM (PC-3) was 10.2% and the inhibition of growth at 10 µM (UO-31) was 43.4%. The inhibition of growth at 10 µM (RXF 393) was < 10%, the inhibition of growth at 10 µM (CAKI-1) was 16.1% and the inhibition of growth at 10 µM (786-0) was < 10%. The inhibition of growth at 10 µM (A498) was 28.3%, the inhibition of growth at 10 µM [1] was < 10% and the inhibition of growth at 10 µM (OVCAR-8) was < 10%. The inhibition of growth at 10 µM (OVCAR-5) was < 10%, the inhibition of growth at 10 µM (HL-60(TB)) was < 10% and the inhibition of growth at 10 µM (SF-268) was < 10%. The inhibition of growth at 10 µM (HT-29) was < 10%, the inhibition of growth at 10 µM (HCT-15) was < 10% and the inhibition of growth at 10 µM (HCC 2998) was < 10%. For the same compound, the inhibition of growth at 10 µM (COLO 205) was 13.5%, the inhibition of growth at 10 µM (NCI-H226) was 10.3% and the inhibition of growth at 10 µM (HOP-92) was < 10%. The inhibition of growth at 10 µM (HOP-62) was < 10%, the inhibition of growth at 10 µM (SR) was < 10% and the inhibition of growth at 10 µM (RPMI-8226) was < 10%.
